From ChEMBL document CHEMBL1129086, “Design of a novel cognitive enhancer (8S, 10aS)-8-carbamoyl-1,2,3,6,7,8,9,10a-octahydro-5H,10H-pyrrolo[1,2-a][1,4]diazocin-5,10-dione” (1996)
Activity calls are given as the source filed them. The rule behind the calls is not given here. Where a SMILES comes first, the peptide text is derived from it. Bridges are numbered along the chain shown (N, C = ends). [ ]: non-standard residue; d: D form. pGlu = O=C1CC[C@@H](C(=O)O)N1

What was measured:
[1] = species: Mus musculus; test: Compound was tested for psychomotor activation on CNS in mice by neuropharmacological test; No effect; type: functional, organism-based; settings: Central nervous system
[2] = species: Mus musculus; test: Compound was tested for sedative action in mice by neuropharmacological test; No effect; type: functional, organism-based
[3] = species: Mus musculus; test: Compound was tested for motor impairment in mice by neuropharmacological test; No effect; type: functional, organism-based
[4] = species: Mus musculus; test: Compound was tested for myorelaxant action in mice by neuropharmacological test; No effect; type: functional, organism-based
[5] = tested on: Rattus norvegicus; test: Compound was tested for amnesia response against scopolamine induced rats by passive avoidance test at a dose 1 mg/kg; type: functional
[6] = tested on: Rattus norvegicus; test: Antiamnesic potency was discovered in the passive avoidance test in rats at a dose 0.1 mg/kg (p<0.05); Amnesia reversed; type: functional, organism-based; parameters: dose 0.1 mg/kg
[7] = tested on: Rattus norvegicus; test: Antiamnesic potency was discovered in the passive avoidance test in rats at a dose 1.0 mg/kg (p<0.05); Amnesia reversed; type: functional, organism-based; parameters: dose 1 mg/kg

Row | Compound | Activity [1] | Activity [2] | Activity [3] | Activity [4] | Response [5] | Activity [6] | Activity [7]
1 | NC(=O)[C@@H]1CCCN1C(=O)[C@H](Cc1c[nH]cn1)NC(=O)[C@@H]1CCC(=O)N1 | inactive | inactive | inactive | inactive |  |  | 
2 | O=C(COC(=O)[C@@H]1CCC(=O)N2CCC[C@H]2C(=O)N1)NC(c1ccccc1)c1ccccc1 | inactive | inactive | inactive | inactive |  |  | 
3 | CC(C)(C)OC(=O)N[C@@H](CCC(=O)N1CCC[C@H]1C(=O)O)C(=O)OCC(=O)NC(c1ccccc1)c1ccccc1 | inactive | inactive | inactive | inactive |  |  | 
4 | NC(=O)[C@@H]1CCC(=O)N2CCC[C@H]2C(=O)N1 (Pro-Glu-NH2; lactam N-2) | inactive | inactive | inactive | inactive | 83% | Amnesia reversed | Amnesia reversed
5 | CC(C)(C)OC(=O)N[C@@H](CCC(=O)O)C(=O)O | inactive | inactive | inactive | inactive |  |  | 
6 | NC(=O)CC[C@H](NC(=O)[C@@H]1CCC(=O)N1)C(=O)N1CCC[C@H]1C(N)=O ([pGlu]-Gln-Pro-NH2) | inactive | inactive | inactive | inactive |  |  | 
7 | CC(C)(C)OC(=O)N[C@@H](CCC(=O)O)C(=O)OCC(=O)NC(c1ccccc1)c1ccccc1 | inactive | inactive | inactive | inactive |  |  | 
